This note sets out measurements from patent US9834541B2, “2-aminopyridine compounds” (Merck Patent GmbH, priority 2012, dated 2017).

In one data set the test system is Wnt pathway. The experiment in a line: Cellular assay for Wnt pathway activity, LS174T-shl-fLuc clone 5 (LS174T-L5) luciferase reporter assay. To be noted: Homo sapiens; LS174T TCF luciferase reporter cells, 24 hours incubation. Format: cell-based. The source says: 1. Cellular Assay for Wnt Pathway Activity LS174T-shl-fLuc Clone 5 (LS174T-L5) Reporter Assay Principle:
This assay is based on an in-vitro luciferase activity readout. The human colon cancer cell line, LS174T was transduced with a lentivirus encoding a short half-life luciferase (with a destabilised PEST sequence construct; construct F1756): 16×TCF/LEF transcription sites—short half life firefly luciferase on a basal pTA promoter—puromycin resistance gene on an EF-1-α promoter). This construct was made using the lentiviral base vector: pCDF1-MCS2-EF1-Puro from System Biosciences (cat. # CD110B-1). The luciferase has a T1/2 of about 60 minutes.
Stable luciferase-expressing clones were selected, using 1 μg/mL puromycin selection and the clones were bulked up.
Compounds that inhibit the Wnt pathway are predicted to inhibit the induction of luciferase transcription by TCF; this will result in reduced luciferase protein production and luciferase signal readout.
Compounds were tested for their Wnt pathway inhibitory activities using the described firefly luciferase reporter cell based assay. An LS174T luciferase reporter cell line was used which contained a T-Cell Factor (TCF) dependent gene promoter firefly luciferase construct.
Compounds, in concentrations from 30 μM to 1 nM, were incubated for 24 hours on the cells. Luciferase activities were determined using the Steady Glo Luciferase Assay System (Promega) and the TOPCOUNT microplate reader (Perkin Elmer). For analysis, the obtained data were normalized against the untreated vehicle control and fitted for determination of the IC50 values using the Excel Fit application of the Excel Software (Microsoft).
In general terms: In a reporter assay the amount or activity of a reporter protein is the signal.

The nature of data set [1]: CLint (intrinsic clearance) assay, liver microsomal incubation. Format: in vitro ADME, human. The conditions noted are these: liver microsomes, pH 7.4; human hepatic microsomes, 0.5 mg/mL protein, class symbols. The procedure: Also shown is the human hepatic microsomal intrinsic clearance (CLint), whereby the following classification is used:
2. CLint (Intrinsic Clearance) Assay
A Tecan Genesis workstation (RWS ASY 150/8) was used to perform the microsomal incubations. Analysis was carried out using a Waters ACQUITY UPLC system coupled to an ABSciex API3000 mass spectrometer. Data analysis was performed using Assay Explorer (Symyx).
Column: Acquity UPLC BEH C18, 2.1×50 mm, 1.7 um (Waters)
Mobile phases: • A=0.1% formic acid in water • B=acetonitrile
Column temperature: 50° C.
0.1 M potassium phosphate buffer pH 7.4 containing 1 mM MgCl2
15 mM NADPH in phosphate buffer
5.0 mg protein/mL liver microsomes in phosphate buffer
Each experiment consists of 12 test and 2 reference compounds. The reference compounds are incubated as a cocktail.
Dilution of test compounds was done in 2 steps from a 10 mM DMSO stock solution. First 4 μL stock solution was added to 196 μL of 20% DMSO in potassium phosphate buffer pH 7.4. In a second step 10 μL of the first dilution were added to 1890 μL potassium phosphate buffer and 100 μL internal standard solution to a final concentration of […].
100 μL of the final compound dilution were aliquoted into a 96 deep well plate. 12.5 μL liver microsomes were added to each well (0.5 mg/mL final protein concentration) and the samples preincubated for 5 min at 37° C. and 800 rpm agitation.
After the preincubation, 250 μL cold acetonitrile were added to the 0 min samples to prevent a reaction. Following this, 12.5 μL NADPH solution were added to all wells to start the incubation, with the exception of the 0 min and 30 min controls without cofactor, where the NADPH was substituted for phosphate buffer.
The incubations were stopped after 5, 10, 20 and 30 min by adding 250 μL cold acetonitrile to the individual wells.
The quenched samples were then centrifuged at 4000 g for 1 h at 4° C. 100 μL of the supernatant were transferred into 96 well plates for analysis.
The metabolic stability of each compound was determined by measurement of the change in LC-MS/MS peak area over time. Assay Explorer software was used to automatically calculate the slope k of the decline. The intrinsic clearance (CLint) of each compound was then calculated according to the formula: CLint(μL/min/mg protein)=k1000/protein concentration.
Background: Liver microsomes are a subcellular fraction often used to study metabolism.

A word on the IC50: it is the midpoint of a concentration-inhibition curve. High values mean lower potency, low ones higher potency. Usually microsomal CLint stands for the rate of metabolic loss divided by the concentration.

A value given as a limit tells only on which side of the number the result lay.

As for `Cn1cc(-c2ccc(-c3cnc(N)c(Cl)c3N3CC[C@H](C#N)[C@@H](O)C3)cc2)cn1` (racemic) [Compound 56, rac (3R,4R)-2′-Amino-3′-chloro-3-hydroxy-5′-[4-(1-methyl-1H-pyrazol-4-yl)-phenyl]-3,4,5,6-tetrahydro-2H-[1,4′] bipyridinyl-4-carbonitrile], inhibition in the data set on Wnt pathway was half-maximal at 531 nM (IC50). In data set [1], the intrinsic clearance (microsomal CLint) at 0.8 μM fell in the range of 10 to 50 µL/min/mg.

Take `CN1c2ccc(-c3cnc(N)c(Cl)c3N3CC[C@H](C#N)[C@@H](O)C3)cc2CS1(=O)=O` (racemic) [Compound 57, Racemic trans-2′-amino-3′-chloro-3-hydroxy-5′-(1-methyl-2,2-dioxo-2,3-dihydro-1H-2l6-benzo[c]isothiazol-5-yl)-3,4,5,6-tetrahydro-2H-[1,4′]bipyridinyl-4-carbonitrile]: the IC50 with Wnt pathway was determined as 28.6 nM. Also, the intrinsic clearance (microsomal CLint) at 0.8 μM in data set [1] was 10 to 50 µL/min/mg.

`Nc1ncc(-c2ccccc2)c(N2CCC3(CCNC3=O)CC2)c1Cl` [Compound 1, 8-(2-Amino-3-chloro-5-phenyl-pyridin-4-yl)-2,8-diaza-spiro[4.5]decan-1-one] showed a 50% inhibitory concentration (IC50) in the data set with Wnt pathway of 670 nM. Further, in data set [1], the intrinsic metabolic clearance (microsomal CLint) at 0.8 μM was in the range of 10 to 50 µL/min/mg.

`Cn1cc(-c2ccc(-c3cnc(N)c(Cl)c3N3CCC4(CC3)NC(=O)NC4=O)cc2)cn1` [Compound 2, 8-{2-Amino-3-chloro-5-[4-(1-methyl-1H-pyrazol-4-yl)-phenyl]-pyridin-4-yl}-1,3,8-triaza-spiro[4.5] decane-2,4-dione]: the IC50 with Wnt pathway is 31 nM. Besides, the intrinsic clearance (microsomal CLint) at 0.8 μM in data set [1] was below 10 µL/min/mg.

`Nc1ncc(-c2ccc3c(N)n[nH]c3c2)c(N2CCC3(CCNC3=O)CC2)c1Cl` [Compound 3, 8-[2-Amino-5-(3-amino-1H-indazol-6-yl)-3-chloro-pyridin-4-yl]-2,8-diaza-spiro[4.5] decan-1-one] yielded an IC50 in the data set on Wnt pathway of 120 nM. Further, in data set [1], the microsomal CLint at 0.8 μM was below 10 µL/min/mg.

Take `CN1c2ccc(-c3cnc(N)c(Cl)c3N3CCC4(CC3)CNC(=O)O4)cc2CS1(=O)=O` [Compound 4, 8-[2-Amino-3-chloro-5-(1-methyl-2,2-dioxo-2,3-dihydro-1H-2I6-benzo[c]isothiazol-5-yl)-pyridin-4-yl]-1-oxa-3,8-diaza-spiro[4.5] decan-2-one]: the IC50 in the data set with Wnt pathway is 38 nM. Moreover, in data set [1], the microsomal CLint at 0.8 μM is below 10 µL/min/mg.

For `Nc1ncc(-c2ccc3c(N)n[nH]c3c2)c(N2CCC3(CC2)NC(=O)NC3=O)c1Cl` [Compound 5, 8-[2-Amino-5-(3-amino-1H-indazol-6-yl)-3-chloro-pyridin-4-yl]-1,3,8-triaza-spiro[4.5] decane-2,4-dione], the IC50 with Wnt pathway came out at 1500 nM. For the same compound, the microsomal CLint at 0.8 μM in data set [1] is below 10 µL/min/mg.

With `Nc1ncc(-c2ccc(-c3cnn(CCO)c3)cc2)c(N2CCC3(CC2)NC(=O)NC3=O)c1Cl` [Compound 6, 8-(2-Amino-3-chloro-5-{4-[1-(2-hydroxy-ethyl)-1H-pyrazol-4-yl]-phenyl}-pyridin-4-yl)-1,3,8-triaza-spiro[4.5] decane-2,4-dione], the IC50 in the data set with Wnt pathway amounted to 390 nM. The microsomal CLint at 0.8 μM in data set [1] is 10 to 50 µL/min/mg.

In the data set on Wnt pathway, `Nc1ncc(-c2ccc3c(c2)NC(=O)C3)c(N2CCC3(CCNC3=O)CC2)c1Cl` [Compound 7, 6-(6-Amino-5-chloro-4-(1-oxo-2,8-diazaspiro[4.5]decan-8-yl)pyridin-3-yl)indolin-2-one] registered an IC50 of 63 nM. Moreover, the microsomal CLint at 0.8 μM in data set [1] lay in the range of 10 to 50 µL/min/mg.

For the compound `Cn1ncc2cc(-c3cnc(N)c(Cl)c3N3CCC4(CC3)NC(=O)NC4=O)ccc21` [Compound 8, 8-[2-Amino-3-chloro-5-(1-methyl-1H-indazol-5-yl)-pyridin-4-yl]-1,3,8-triaza-spiro[4.5] decane-2,4-dione], half-maximal inhibition with Wnt pathway (IC50) was put at 29 nM. For the same compound, in data set [1], the microsomal CLint at 0.8 μM is below 10 µL/min/mg.

As for `Nc1ncc(-c2ccc3oc(=O)[nH]c3c2)c(N2CCC3(CC2)CNC(=O)O3)c1Cl` [Compound 9, 8-[2-Amino-3-chloro-5-(2-oxo-2,3-dihydro-benzooxazol-5-yl)-pyridin-4-yl]-1-oxa-3,8-diaza-spiro[4.5] decan-2-one], the 50% inhibitory concentration (IC50) with Wnt pathway was 98 nM. Besides, the intrinsic metabolic clearance (microsomal CLint) at 0.8 μM in data set [1] lay within 10 to 50 µL/min/mg.

For `Cn1cc(-c2ccc(-c3cnc(N)c(Cl)c3N3CCC4(CC3)CNC(=O)O4)cc2)cn1` [Compound 10, 8-{2-Amino-3-chloro-5-[4-(1-methyl-1H-pyrazol-4-yl)-phenyl]-pyridin-4-yl}-1-oxa-3,8-diaza-spiro[4.5] decan-2-one], the IC50 in the data set on Wnt pathway was found to be 36 nM. In addition, the microsomal CLint at 0.8 μM in data set [1] is 10 to 50 µL/min/mg.

On to `Cn1cc(-c2ccc(-c3cnc(N)c(Cl)c3N3CCC4(CC3)C(=O)Nc3ccccc34)cc2)cn1` [Compound 11, 1′-(2-Amino-3-chloro-5-(4-(1-methyl-1H-pyrazol-4-yl)phenyl)pyridin-4-yl)spiro[indoline-3,4′-piperidin]-2-one], for which the half-maximal inhibitory concentration (IC50) with Wnt pathway is 3 nM. Moreover, in data set [1], the intrinsic metabolic clearance (microsomal CLint) at 0.8 μM lay within 10 to 50 µL/min/mg.

In the data set on Wnt pathway, `Nc1ncc(-c2ccc3c(N)n[nH]c3c2)c(N2CCC3(CC2)CC(=O)NC3=O)c1Cl` [Compound 12, 8-[2-Amino-5-(3-amino-1H-indazol-6-yl)-3-chloro-pyridin-4-yl]-2,8-diaza-spiro[4.5] decane-1,3-dione] came in with a concentration for half-maximal inhibition (IC50) of 31 nM. Moreover, the microsomal CLint at 0.8 μM in data set [1] is 10 to 50 µL/min/mg.

Turning to `Nc1ncc(-c2ccc3c(c2)CCC(=O)N3)c(N2CCC3(CC2)CC(=O)NC3=O)c1Cl` [Compound 13, 8-[2-Amino-3-chloro-5-(2-oxo-1,2,3,4-tetrahydro-quinolin-6-yl)-pyridin-4-yl]-2,8-diaza-spiro[4.5] decane-1,3-dione], in the data set on Wnt pathway, half-maximal inhibition (IC50) was put at 14 nM. The microsomal CLint at 0.8 μM in data set [1] is below 10 µL/min/mg.

In the data set on Wnt pathway, `Nc1ncc(-c2ccc3[nH]ncc3c2)c(N2CCC3(CCNC3=O)CC2)c1Cl` [Compound 35, 8-[2-Amino-3-chloro-5-(1H-indazol-5-yl)-pyridin-4-yl]-2,8-diaza-spiro[4.5] decan-1-one] displayed a half-maximal inhibitory concentration (IC50) of 85 nM.

In the case of `CN1C(=O)Cc2cc(-c3cnc(N)c(Cl)c3N3CCC4(CC3)CNC(=O)O4)ccc21` [Compound 36, 8-[2-Amino-3-chloro-5-(1-methyl-2-oxo-2,3-dihydro-1H-indol-5-yl)-pyridin-4-yl]-1-oxa-3,8-diaza-spiro[4.5] decan-2-one], the IC50 with Wnt pathway was above 300 nM.

As for `Nc1ncc(-c2ccc3c(N)n[nH]c3c2)c(N2CCC3(CC2)CNC(=O)O3)c1Cl` [Compound 37, 8-[2-Amino-5-(3-amino-1H-indazol-6-yl)-3-chloro-pyridin-4-yl]-1-oxa-3,8-diaza-spiro[4.5] decan-2-one], half-maximal inhibition with Wnt pathway (IC50) required 2300 nM.

As to `Cn1cc(-c2ccc(-c3cnc(N)c(Cl)c3N3CCC4(CC3)CC(=O)NC4=O)cc2)cn1` [Compound 38, 8-(2-Amino-3-chloro-5-(4-(1-methyl-1H-pyrazol-4-yl)phenyl)pyridin-4-yl)-2,8-diazaspiro[4.5]decane-1,3-dione], the IC50 in the data set with Wnt pathway amounted to 2 nM.

In turn, `Nc1ncc(-c2ccc(-c3cnn(CCO)c3)cc2)c(N2CCC3(CC2)NCCNC3=O)c1Cl` [Compound 45, 9-(2-Amino-3-chloro-5-{4-[1-(2-hydroxy-ethyl)-1H-pyrazol-4-yl]-phenyl}-pyridin-4-yl)-1,4,9-triaza-spiro[5.5] undecan-5-one] registered an IC50 in the data set with Wnt pathway of 560 nM.

For `Cn1cc(-c2ccc(-c3cnc(N)c(C(F)(F)F)c3N3CCC(C(N)=O)CC3)cc2)cn1` [Compound 48, 2′-Amino-5′-[4-(1-methyl-1H-pyrazol-4-yl)-phenyl]-3′-trifluoro-methyl-3,4,5,6-tetrahydro-2H-[1,4′] bipyridinyl-4-carboxylic acid amide], in the data set on Wnt pathway, 160 nM corresponded to half-maximal inhibition (IC50).
